Here are results for one compound from patent US20120028358A1, “METHOD FOR INCREASING RETROVIRAL INFECTIVITY” (priority 2010, published 2012).

Entries after “also recorded” stand apart in the source; their conditions may differ.

Data set [1] concerns T47D cells. As to the kind of experiment: Non-integrated and integrated viral DNA in infected T47D cells (qPCR). Format: cell-based, human. The conditions noted are these: 1 μmol/L, any time after infection. As for the experimental part:
Viral DNA measurement: The total DNA from infected cells was extracted by DNeasy Blood & tissue kit (Qiagen). The level of viral DNA in total DNA extract isolated from infected cells was determined by quantitative PCR using iScript One-Step RT-PCR kit (with SYBR Green, Bio-Rad, 170-8893) with primers for the GFP or the internal ribosome entry site regions of the viral DNA following the manufacturer's instructions. No reverse transcriptase was used in order to exclude contamination from a viral RNA signal. In integration studies, the total DNA isolated from infected cells was first resolved in a 0.8% agarose gel. […] DNA from each fraction was extracted and analyzed for the presence of viral sequences by qPCR as previously described.
Similar to previous experiments, the total cellular DNA was isolated and resolved on a 0.8% agarose gel. […] Similar to our results in endothelial cells (FIG. 13) the level of free (i.e. non-integrated) viral DNA was elevated 6 hours after infection and then gradually declined towards baseline (FIG. 15A).

Data set [2] concerns lentiviruses pLemiR and pLVX-DsRed-Monomer-C1. As to the kind of experiment: Lentiviral vector infection of PMVEC. Format: cell-based, rat. The conditions noted are these: 1 μmol/L; VSV-G based viral particles. From the text:
(§1) Vectors and delivery systems: pBMN-GFP (Orbigen, Inc., San Diego, Calif.), a retroviral vector that expresses GFP driven by the MMLV's promoter in Phoenix and other cells was used. In some experiments Murine Stem Cell Virus (MSCV) expressing mCherry and the hybrid retroviral vector Friend Murine Embryonic-stem cell Virus (FMEV) [for Friend Mink Cell Focus-forming (FMCF)/Murine Embryonic Stem cell Virus (MESV)](31) expressing DsRed2 were used in addition to MMLV. Two lentiviral vectors pLemiR (Open Biosystems, Huntsville, Ala.) and pLVX-DsRed-Monomer-C1 (Clontech Laboratories, Inc., Mountain View, Calif.) harboring turboRFP and DsRed as reporters were also used for comparison to gamma-retroviruses. Packaging cells were transfected with retroviral vectors using FuGENE 6 reagent following the manufacturer's instructions. For virus propagation, packaging cells were cultured in growth medium for 12-18 hours. Virus was collected with cultured medium, filtered, supplemented with hexadimethrine bromide (polybrene) to a final concentration of 4 μg/ml and applied directly to target cells.
(§2) Gamma-retroviral backbones containing genes encoding fluorescent proteins as reporters were propagated in Phoenix ecotropic packaging cells. Viral-conditioned supernatant was collected and applied to target cells (rat pulmonary microvascular endothelial cells, PMVEC).

Data set [3] concerns rat PMVEC. Put plainly: Gamma-retroviral infection efficiency of PMVEC (percent fluorescent cells by FACS). Type of data set: cell-based. The procedure:
(§3) Cell cultures: Phoenix Retroviral Expression System ecotropic and amphotropic packaging cells were purchased from Orbigen, Inc. (San Diego, Calif.). […] Rat pulmonary microvascular endothelial cells (PMVEC), were obtained from our cell culture core at the University of South Alabama (King J, et al. Structural and functional characteristics of lung macro and microvascular endothelial phenotypes. Microvascular Res. 2004, March, 67(2). 139-151). Human glioblastoma cells (U87MG), and human mammary carcinoma cells (T47D) were obtained from ATCC. All cells were cultured in DMEM, 10% FBS, 2 mmol L-Glutamine and used for experiments at passages 4-9. All cells were grown in humidified incubators at 37° C. in 5% CO2. Cells were harvested by 0.05% trypsin/0.53 mM EDTA digestion, washed, re-suspended in cultured medium and analyzed directly by FACScan in the University of South Alabama Flow Cytometry Core. For cell cycle analysis cellular DNA was stained with […] of propridium iodide for 20 minutes as described elsewhere (48) and then analyzed by FACScan.
as §1, §2

The subject of data set [4] is HIV. The conditions noted are these: depending on cell type; cited from earlier work.
The test system of data set [5] is U87MG cells. As to the kind of experiment: Amphotropic MMLV infection of U87MG cells. Type of data set: cell-based, human. To be noted: 1 μmol/L, 72 hours. The procedure:
as §3

The test system of data set [6] is Phoenix cells and PMVEC. As to the kind of experiment: Cell growth and survival of packaging and target cells. The conditions noted are these: packaging or target cells.
The subject of data set [7] is rat PMVEC. As to the kind of experiment: Intensity of GFP expression in infected target cells (pro-viral LTR promoter). Type of data set: cell-based. To be noted: mifepristone in conditioned medium. The procedure:
Flow cytometry analysis: Cells were harvested by 0.05% trypsin/0.53 mM EDTA digestion, washed, re-suspended in cultured medium and analyzed directly by FACScan in the University of South Alabama Flow Cytometry Core.
To assess whether dexamethasone had the same stimulatory effect on the LTR promoter of the pro-virus integrated into the target cells that it did on packaging cells (FIG. 1A), the expression level of GFP in infected cells was also measured. […] Dexamethasone had no effect on cell growth over 7 days in either retrovirus producing or target cells (data not shown).

The test system of data set [8] is Phoenix cells. As to the kind of experiment: Viral titer of conditioned medium by quantitative RT-PCR (GFP region of viral RNA). Format: cell-based. The procedure:
Vectors and delivery systems: pBMN-GFP, a retroviral vector that expresses GFP driven by the MMLV's promoter in Phoenix and other cells was purchased from Orbigen, Inc. (San Diego, Calif.). Packaging cells were transfected with pBMN-GFP using FuGENE 6 reagent following manufacture instructions. Stably transfected Phoenix cells were selected by GFP expression using flow cytometry and then used for experiments. For virus propagation, packaging cells were cultured in growth medium for at least 12 hours. Virus was collected with cultured medium, filtered, supplemented with hexadimethrine bromide (polybrene) to a final concentration of 4 μg/ml and applied directly to target cells. The level of viral RNA in collected medium was determined by quantitative PCR using iScript One-Step RT-PCR kit (with SYBR Green, Bio-Rad, 170-8893) using primers for the GFP region of the viral RNA following manufacture instructions.
We first tested the ability of dexamethasone to increase retroviral protein production in Phoenix cells with integrated pro-viruses using GFP as a reporter. […] We then analyzed the Phoenix cells for GFP expression by flow cytometry. […] To determine if this increase in GFP expression correlated with an increase in viral titer in the supernatant, we performed quantitative RT-PCR on the conditioned medium using primers for the GFP region of the viral RNA.

Data set [9] has as its system rat pulmonary microvascular endothelial cells (PMVEC). As to the kind of experiment: Percent GFP-positive (infected) target cells after conditioned medium from Phoenix cells. Type of data set: cell-based.
In data set [10] the test system is Phoenix cells. As to the kind of experiment: GFP reporter expression in Phoenix packaging cells with integrated pro-virus (flow cytometry, Western blot). Format: cell-based. To be noted: mifepristone 0-20 μmol, without dexamethasone.
In data set [11] the test system is rat PMVEC. Put plainly: Infectivity of conditioned medium stored at 37° C. (viral particle survival). To be noted: CO2 incubator at 37° C. Type of data set: cell-based.

On to `CC#C[C@]1(O)CC[C@H]2[C@@H]3CCC4=CC(=O)CCC4=C3[C@@H](c3ccc(N(C)C)cc3)C[C@@]21C` [mifepristone, 11-beta-(4-dimethylaminophenyl)-17-beta-hydroxy-17-alpha-(1-propynyl)-estra-4,9-dien-3-one], for which the “Amount of free viral DNA versus vehicle” value in data set [1] is “no difference”. Besides, the “Amount of incorporated viral DNA versus vehicle” value in [1] is on record as “no difference”. In addition, in data set [2], the “Target cell infectivity of lentiviral vectors” value is recorded as “did not increase”. Further, the “Enhancement at earlier time points after re-seeding (survival of non-integrated viral intermediates)” value in data set [3] (1 μmol/L) was “did not demonstrate an enhanced effect”. In addition, the “Percentage of GFP positive (infected) cells” value in data set [3] (1 μmol/L added 1 hour after removal of virus (1 hour infection), vehicle 2.1) was determined as 3.7%. In addition, the “Infection of non-dividing (100% confluent) cells” value in data set [3] (1 μmol/L, MMLV) is “no effect”. Also, the “Percentage of infected cells” value is “almost doubled” in [3] (1 μmol/L, ecotropic MMLV, MSCV, FMEV backbones); “more than doubled” in data set [9] (mifepristone at 2 μmol and higher concentration). Also, in [3] (1 μmol/L, growth-arrested PMVEC re-seeded, all time points), the “Increase of infectivity rate” value is “about 2.9 fold”. Moreover, in data set [4], the HIV replication result is reported as “could stimulate”. Moreover, the Retroviral infectivity result in data set [5] was “increased”. Also, the “Adverse effects on cell growth or survival” value in [6] is “did not cause any evident adverse effects”. The “GFP expression in infected target cells” value in [7] is reported as “did not alter”. The “Effect on enhancing effect of dexamethasone on virus production” value in data set [8] (dexamethasone and mifepristone added to packaging cells at the same time) is “partially blocks; also recorded: completely inhibited”. Moreover, in data set [8] (mifepristone 0-20 μmol, without dexamethasone), the “Viral levels in the medium” value is on record as “no effect”. For the same compound, in [9] (2 μmol mifepristone, 100 nmol dexamethasone (FIG. 7B)), the “Target cell infectivity by place of addition (packaging cells or collected medium)” value is “increased target cell infectivity to a similar degree”. Moreover, the “GFP level in the packaging cells” value in data set [10] was “no effect”. Also, the “Decline of infectivity of conditioned medium over each 24 hour period” value in data set [11] is on record as “not attenuated”.
